How the values were obtained:
rat [1] = settings: Multigenerational reproductive toxicity study; fischer; Inhalation; Whole-Body; dose end: 2 generation; group: parental; systemic / in life observation / body weight / body weight
rat [2] = settings: Neurotoxicity screening battery; fischer; Inhalation; Whole-Body; dose end: 24 week; group: cannot be grouped; systemic / in life observation / body weight / body weight
rat [3] = settings: Combined chronic toxicity/carcinogenicity, wistar, Inhalation, Whole-Body, dose end: 125 week, group: systemic
rat [4] = settings: Prenatal developmental toxicity study, fischer, Inhalation, Whole-Body, dose end: 15 GD
dog [5] = settings: Subchronic oral toxicity in nonrodent, beagle, Capsule, dose end: 90 day, group: systemic
rat [6] = settings: Subchronic oral toxicity in rodents, other, Feed, dose end: 90 day, group: systemic
rat [7] = settings: Subchronic oral toxicity in rodents, sprague dawley, Feed, dose end: 90 day, group: systemic
dog [8] = settings: Chronic toxicity; beagle; Oral; Feed; dose end: 12 month; group: systemic; systemic / clinical chemistry / beta globulin / beta globulin + systemic / hematology / erythrocyte (rbc) count differential / erythrocyte (…
mouse [9] = settings: Carcinogenicity; cd1; Oral; Feed; dose end: 79 week; group: systemic; systemic / hematology / leukocyte (wbc) count differential / leukocyte (wbc) + systemic / hematology / lymphocyte / lymphocyte + systemic / …
dog [10] = settings: Subchronic oral toxicity in nonrodent, beagle, Feed, dose end: 90 day, group: systemic
rat [11] = settings: Prenatal developmental toxicity study; sprague dawley; Oral; Feed; dose end: 15 GD; group: maternal; systemic / in life observation / body weight / body weight gain + systemic / in life observation / food consumption / food consumption
mouse [12] = settings: Carcinogenicity, b6c3f1, Oral, Feed, dose end: 24 month
rat [13] = settings: Prenatal developmental toxicity study, sprague dawley, Oral, Gavage/Intubation, dose end: 15 GD
rat [14] = settings: Sub-acute repeat dose toxicity; wistar; Injection; Intravenous; dose end: 28 day; group: systemic; systemic / clinical chemistry / calcium / calcium
rat [15] = settings: Subchronic oral toxicity in rodents, fischer, Water, dose end: 25 week, group: systemic, systemic / in life observation / body weight / body weight gain
rat [16] = settings: Chronic toxicity; fischer; Oral; Water; dose end: 104 week; group: systemic; systemic / pathology microscopic / mammary gland / fibroadenoma
mouse [17] = settings: Subchronic oral toxicity in rodents, b6c3f1, Water, dose end: 13 week, group: systemic
mouse [18] = settings: Chronic toxicity, b6c3f1, Oral, Water, dose end: 104 week, group: systemic
rat [19] = settings: Prenatal developmental toxicity study; wistar; Oral; Gavage/Intubation; dose end: 18 GD; group: developmental; systemic / organ weight / epididymis / absolute + systemic / organ weight / liver / absolute
rat [20] = settings: Prenatal developmental toxicity study; wistar; Oral; Gavage/Intubation; dose end: 18 GD; group: developmental; systemic / organ weight / epididymis / absolute + systemic / organ weight / liver / absolute; remark: listed apart in the source
rat [21] = settings: Multigenerational reproductive toxicity study; long evans; Oral; Gavage/Intubation; dose end: 1 generation; group: offspring; systemic / organ weight / vagina / absolute + systemic / organ weight / vagina / relative to body weight
rat [22] = settings: Combined chronic toxicity/carcinogenicity; fischer; Oral; Feed; dose end: 365 day; group: systemic; systemic / in life observation / body weight / body weight
mouse [23] = settings: Combined chronic toxicity/carcinogenicity; other; Oral; Feed; dose end: 365 day; group: systemic; systemic / pathology microscopic / blood / lymphoma malignant
mouse [24] = settings: Sub-acute repeat dose toxicity; b6c3f1; Oral; Feed; dose end: 14 day; group: systemic; systemic / in life observation / clinical signs / fur (altered appearance) + systemic / in life observation / mortality / mortality
rat [25] = settings: Subchronic oral toxicity in rodents, fischer, Feed, dose end: 13 week, group: systemic
rat [26] = settings: Carcinogenicity; fischer; Oral; Feed; dose end: 103 week; group: systemic; systemic / in life observation / body weight / body weight + systemic / pathology microscopic / eye / cataract + systemic / pathology …
rat [27] = settings: Sub-acute repeat dose toxicity; fischer; Oral; Feed; dose end: 14 day; group: systemic; systemic / in life observation / body weight / body weight gain + systemic / in life observation / clinical signs / urogenital staining + …
mouse [28] = settings: Carcinogenicity; b6c3f1; Oral; Feed; dose end: 103 week; group: systemic; systemic / in life observation / body weight / body weight
[29] = systemic / in life observation / body weight / body weight
[30] = group: developmental, developmental / developmental malformation / bone / supernumerary
[31] = group: maternal, systemic / in life observation / body weight / body weight gain + systemic / in life observation / food consumption / food consumption
[32] = group: maternal, systemic / in life observation / body weight / body weight gain + systemic / in life observation / food consumption / food consumption + …
[33] = systemic / clinical chemistry / [other] / [other] + systemic / clinical chemistry / bilirubin / total bilirubin + systemic / clinical …
[34] = systemic / in life observation / body weight / body weight gain
[35] = systemic / in life observation / body weight / body weight gain + systemic / pathology microscopic / kidney / casts + systemic / pathology …
[36] = systemic / in life observation / body weight / body weight gain + systemic / organ weight / spleen / relative to body weight + systemic / …
[37] = group: cholinesterase, cholinesterase / cholinesterase / cholinesterase / brain cholinesterase (che)
[38] = group: cholinesterase, cholinesterase / cholinesterase / cholinesterase / brain cholinesterase (che) + cholinesterase / cholinesterase / cholinesterase / plasma …
[39] = group: systemic, systemic / in life observation / clinical signs / convulsions + systemic / pathology gross / lymph node / enlarged + systemic / pathology …
[40] = group: developmental, systemic / in life observation / body weight / fetal weight
[41] = systemic / in life observation / body weight / body weight gain + systemic / in life observation / mortality / mortality + systemic / …
[42] = systemic / pathology microscopic / blood / lymphoma malignant
[43] = systemic / pathology microscopic / blood / lymphoma malignant + systemic / in life observation / body weight / body weight
[44] = systemic / in life observation / body weight / body weight gain + systemic / in life observation / clinical signs / skin discoloration + …

CC1CO1 (centres undefined) [1,2-Propylene oxide]
LEL (rat [1]): 30 ppm | LOAEL (rat [1]): > 300 ppm | NEL (rat [1]): < 30 ppm | NOAEL (rat [1]): ≥ 300 ppm | LEL (rat [2]): 100 ppm | LOAEL (rat [2]): > 300 ppm | NEL (rat [2]): 30 ppm | NOAEL (rat [2]): ≥ 300 ppm | LEL (rat [3]; [29]): 30 ppm | NEL (rat [3]; [29]): < 30 ppm | LOAEL (rat [3]; systemic / pathology microscopic / nose / [other] + systemic / pathology microscopic / nose / hyperplasia): 100 ppm | NOAEL (rat [3]; systemic / pathology microscopic / nose / [other] + systemic / pathology microscopic / nose / hyperplasia + systemic / pathology microscopic…): 30 ppm | LEL (rat [4]; [30]): 500 ppm | LOAEL (rat [4]; [30]): 500 ppm | NEL (rat [4]; [30]): 300 ppm | NOAEL (rat [4]; [30]): 300 ppm | LOAEL (rat [4]; [31]): 500 ppm | LEL (rat [4]; [32]): 500 ppm | NEL (rat [4]; [32]): 300 ppm | NOAEL (rat [4]; [32]): 300 ppm

CCc1occc(=O)c1O [2-Ethyl-3-hydroxy-4H-pyran-4-one]
LOAEL (dog [5]; [33]): > 500 mg/kg/day | NOAEL (dog [5]; [33]): ≥ 500 mg/kg/day | NEL (dog [5]; systemic / clinical chemistry / bilirubin / total bilirubin + systemic / hematology / anemia / anemia - hemolytic + systemic / pathology …): 125 mg/kg/day | LEL (dog [5]; systemic / pathology microscopic / liver / hemosiderosis): 250 mg/kg/day | LEL (rat [6]; [34]): 500 mg/kg/day | LOAEL (rat [6]; [35]): > 1000 mg/kg/day | NEL (rat [6]; [35]): 250 mg/kg/day | NOAEL (rat [6]; [35]): ≥ 1000 mg/kg/day

COc1ccc(-c2ccccc2)cc1NNC(=O)OC(C)C [Bifenazate]
LEL (rat [7]; systemic / clinical chemistry / protein / protein): 13.8 mg/kg/day | NEL (rat [7]; systemic / clinical chemistry / protein / protein + systemic / hematology / erythrocyte (rbc) count differential / erythrocyte (rbc) + …): 2.7 mg/kg/day | LOAEL (rat [7]; [36]): 16.3 mg/kg/day | NOAEL (rat [7]; [36]): 3.2 mg/kg/day | LEL (dog [8]): 8.95 mg/kg/day | LOAEL (dog [8]): 8.95 mg/kg/day | NEL (dog [8]): 1.01 mg/kg/day | NOAEL (dog [8]): 1.01 mg/kg/day | LEL (mouse [9]): 15.4 mg/kg/day | LOAEL (mouse [9]): 15.4 mg/kg/day | NEL (mouse [9]): 1.5 mg/kg/day | NOAEL (mouse [9]): 1.5 mg/kg/day | LOAEL (dog [10]; systemic / hematology / mean corpuscular (cell) volume (mcv) / mean corpuscular (cell) volume (mcv) + systemic / hematology / mean …): 10.4 mg/kg/day | LEL (dog [10]; [34]): 0.9 mg/kg/day | NEL (dog [10]; [34]): < 0.9 mg/kg/day | NOAEL (dog [10]; systemic / in life observation / body weight / body weight gain + systemic / hematology / mean corpuscular (cell) volume (mcv) / mean …): 0.9 mg/kg/day

COP(=S)(OC)SCN1C(=O)c2ccccc2C1=O [Phosmet]
LEL (rat [11]): 27 mg/kg/day | LOAEL (rat [11]): > 29 mg/kg/day | NEL (rat [11]): 22 mg/kg/day | NOAEL (rat [11]): ≥ 29 mg/kg/day | LOAEL (mouse [12]; [37]): 1 mg/kg/day | NOAEL (mouse [12]; [37]): < 1 mg/kg/day | LEL (mouse [12]; [38]): 1 mg/kg/day | NEL (mouse [12]; [38]): < 1 mg/kg/day | LOAEL (mouse [12]; group: systemic, systemic / in life observation / clinical signs / convulsions): 4 mg/kg/day | LEL (mouse [12]; [39]): 1 mg/kg/day | NEL (mouse [12]; [39]): < 1 mg/kg/day | NOAEL (mouse [12]; group: systemic, systemic / in life observation / clinical signs / convulsions + systemic / pathology microscopic / liver / hepatocellular adenoma + systemic…): 1 mg/kg/day | LEL (rat [13]; [40]): 5 mg/kg/day | LOAEL (rat [13]; [40]): > 30 mg/kg/day | NEL (rat [13]; [40]): < 5 mg/kg/day | NOAEL (rat [13]; [40]): ≥ 30 mg/kg/day | LEL (rat [13]; [31]): 20 mg/kg/day | LOAEL (rat [13]; [32]): > 30 mg/kg/day | NEL (rat [13]; [32]): 10 mg/kg/day | NOAEL (rat [13]; [32]): ≥ 30 mg/kg/day

O=C1CCCCC1 [Cyclohexanone]
LEL (rat [14]): 100 mg/kg/day | LOAEL (rat [14]): > 100 mg/kg/day | NEL (rat [14]): 50 mg/kg/day | NOAEL (rat [14]): ≥ 100 mg/kg/day | LEL (rat [15]): 325 mg/kg/day | LOAEL (rat [15]): > 325 mg/kg/day | NEL (rat [15]): 235 mg/kg/day | NOAEL (rat [15]): ≥ 325 mg/kg/day | LEL (rat [16]): 325 mg/kg/day | LOAEL (rat [16]): > 325 mg/kg/day | NEL (rat [16]): 165 mg/kg/day | NOAEL (rat [16]): ≥ 325 mg/kg/day | LEL (mouse [17]; [34]): 3330 mg/kg/day | LOAEL (mouse [17]; [41]): > 6270 mg/kg/day | NEL (mouse [17]; [41]): 1730 mg/kg/day | NOAEL (mouse [17]; [41]): ≥ 6270 mg/kg/day | LEL (mouse [18]; [42]): 867 mg/kg/day | NEL (mouse [18]; [42]): < 867 mg/kg/day | LOAEL (mouse [18]; [43]): > 3330 mg/kg/day | NOAEL (mouse [18]; [43]): ≥ 3330 mg/kg/day

CCCCCCCCCc1ccc(O)cc1 [4-Nonylphenol]
LEL (rat [19]): 15 mg/kg/day | LOAEL (rat [19]): > 75 mg/kg/day | NEL (rat [19]): 3 mg/kg/day | NOAEL (rat [19]): ≥ 75 mg/kg/day | LEL (rat [20]): 15 mg/kg/day | LOAEL (rat [20]): > 75 mg/kg/day | NEL (rat [20]): 3 mg/kg/day | NOAEL (rat [20]): ≥ 75 mg/kg/day

[O][Cl+][O-] [Chlorine dioxide]
LEL (rat [21]): 10 mg/kg/day | LOAEL (rat [21]): > 10 mg/kg/day | NEL (rat [21]): 5 mg/kg/day | NOAEL (rat [21]): ≥ 10 mg/kg/day

CCCCCC(N)=O [Hexanamide]
LEL (rat [22]): 750 mg/kg/day | LOAEL (rat [22]): > 750 mg/kg/day | NEL (rat [22]): < 750 mg/kg/day | NOAEL (rat [22]): ≥ 750 mg/kg/day | LEL (mouse [23]): 1500 mg/kg/day | LOAEL (mouse [23]): > 1500 mg/kg/day | NEL (mouse [23]): < 1500 mg/kg/day | NOAEL (mouse [23]): ≥ 1500 mg/kg/day

CCCOC(=O)c1cc(O)c(O)c(O)c1 [Propyl gallate]
LEL (mouse [24]): 7500 mg/kg/day | LOAEL (mouse [24]): > 15000 mg/kg/day | NEL (mouse [24]): 3750 mg/kg/day | NOAEL (mouse [24]): ≥ 15000 mg/kg/day | LEL (rat [25]; [34]): 625 mg/kg/day | LOAEL (rat [25]; [34]): 625 mg/kg/day | NEL (rat [25]; [44]): 300 mg/kg/day | NOAEL (rat [25]; [44]): 300 mg/kg/day | LEL (rat [26]): 300 mg/kg/day | LOAEL (rat [26]): 300 mg/kg/day | NEL (rat [26]): < 300 mg/kg/day | NOAEL (rat [26]): < 300 mg/kg/day | LEL (rat [27]): 2500 mg/kg/day | LOAEL (rat [27]): > 5000 mg/kg/day | NEL (rat [27]): 1250 mg/kg/day | NOAEL (rat [27]): ≥ 5000 mg/kg/day | LEL (mouse [28]): 900 mg/kg/day | LOAEL (mouse [28]): 900 mg/kg/day | NEL (mouse [28]): < 900 mg/kg/day | NOAEL (mouse [28]): < 900 mg/kg/day

From EPA's ToxRefDB 2
